Drawing on article PMC5470052, “Brain Activation by H1 Antihistamines Challenges Conventional View of Their Mechanism of Action in Motion Sickness: A Behavioral, c-Fos and Physiological Study in Suncus murinus (House Musk Shrew)” (Frontiers in Physiology, 2017), this text covers Kb for 1 compound.

Each structure is given as a SMILES string.

The assay relates to T1, histamine H1 receptor.
T1 construct: gene HRH1; native receptor in isolated ileal segments
Put plainly: organ bath, antagonism of histamine-induced contraction of isolated ileum; double reciprocal analysis. More on the design: species or system Suncus murinus.

In the case of `O=C(O)COCCN1CCN(C(c2ccccc2)c2ccc(Cl)cc2)CC1` (stereo not shown) [cetirizine], the Kb was 8.4 pKb.
